Experimental findings from article PMC3587609, “A Novel Cell-Penetrating Peptide Derived from Human Eosinophil Cationic Protein” (PLoS ONE, 2013) are described below.

Assay [1] concerns Beas-2B cells. In words: Cell-based ELISA: binding of FITC-peptides to Beas-2B cells. As to conditions: 5 µM FITC-peptides, 4°C, 1 h, washed twice with PBS, cell-based ELISA (FITC fluorescence), FITC-ECP32–41 bound normalized to 100%, mean ± S.D., n = 4. As to the method: Cells (2×10^4/well) were seeded into 96-well black plate and incubated under a 5% CO2 atmosphere at 37°C for 24 h. Each well was then washed with 150 µl ice-cold PBS. To prevent non-specific antibody binding, BSA was used as a blocking agent, and PBS containing 2% (w/v) BSA was added to each well at 4°C and incubated for 1 h. The wells were then washed with 100 µl ice-cold PBS. FITC-conjugated peptides were diluted to 10, 20, or 100 µM in PBS and then, medium (95 µl) and a peptide/PBS solution (5 µl) were gently mixed, added into a well, and the plate was placed on ice for 1 h. Each well was then washed with 100 µl PBS and the FITC fluorescent intensity for each sample was measured using a fluorescence spectrophotometer (Wallac Victor II, Perkin Elmer, USA) and excitation and emission wavelengths of 485 nm and 521 nm respectively.

For assay [2], the system named is Beas-2B cells. In words: Internalization after heparinase / chondroitinase ABC depletion of GAGs. In kind it is cell-based. Conditions: 10 U/ml chondroitinase ABC, 37°C, 2 h, then 5 µM FITC-ECP32–41, 37°C, 1 h; flow cytometry; n = 3. How it is done: Figure 3 HS-dependent ECP^32–-41 internalization. […] (B) Samples of wild-type and mutant CHO cells were each incubated with 5 µM FITC-ECP^32–41 at 37°C for 1 h and then subjected to flow cytometry. (C) Samples of wild-type and mutant CHO cells were incubated with 5 µM FITC-ECP^32–41 at 37°C for 1 h., then washed twice with 1 ml PBS, and fixed for CLSM. Nuclei were stained with Hoechst 34850. Scale bar: 20 µm. (D) Beas-2B cells were treated with heparinase I, heparinase III, or chondroitinase ABC for 2 h prior to incubation with 5 µM FITC-ECP^32–41 at 37°C for 1 h. […] Untreated cells served as the controls. The fluorescence of cells treated with FITC-ECP^32–41 was set to 100%. […] (E) Beas-2B cells were treated with heparinase I, heparinase III, or chondroitinase ABC for 2 h. […] Untreated cells served as the control. The fluorescence of the untreated cells was set to 100%.
Cells (3.0×10^5/well) were added into six-well plates and cultured in the indicated medium. After 24 h, each FITC-peptide, dissolved in medium, was added into a well and the samples incubated for 1 h. Cells were then harvested, washed, and suspended in PBS. The fluorescent intensities of the cell samples were measured using a FACSCalibur flow cytometer (BD Biosciences, Franklin Lakes, NJ) and excitation and emission wavelengths of 488 nm and 515–545 nm respectively. […]
A general note: Flow cytometry measures light scatter and fluorescence of single cells or particles in a stream.

With NYRWRCKNQN [ECP^32–41], the “Binding (%)” value in assay [1] is 100%. Moreover, the “effect of CS depletion (chondroitinase ABC) on internalization” value in assay [2] is listed as “little effect”.
